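Step 1: Grow cells in 96-well plates. Step 2: Expose to compound for 48 hours at 5 concentrations. Step 3: Interpolate endpoints linearly; if unreached, use highest concentration. GI50 marks 50% less growth.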 Activity calls are given as the source filed them. Rule as the data show it: active = GI50 up to about 1.1 µM and inactive = higher.
Experiments:
Experiment in all cases: inhibition of tumour cell growth, NCI panel, 48 h
[1] = test system: A498
[2] = test system: A549
[3] = test system: DU-145
[4] = test system: EKVX
[5] = test system: HCC 2998
[6] = test system: HCT-116
[7] = test system: HOP-92
[8] = test system: HT-29
[9] = test system: MDA-MB-435
[10] = test system: NCI-H226
[11] = test system: NCI-H23
[12] = test system: NCI-H460
[13] = test system: NCI-H522
[14] = test system: OVCAR-8
[15] = test system: RPMI-8226
[16] = test system: RXF 393
[17] = test system: SF-539
[18] = test system: SK-MEL-5
[19] = test system: OVCAR-3
[20] = test system: SNB-75

Measured: GI50

CN(C)c1ccc(/C=C/c2nc3ccccc3s2)cc1
inactive: [1] > 100 µM | [2] > 100 µM | [3] > 100 µM | [4] > 100 µM | [5] > 100 µM | [6] > 100 µM | [7] > 100 µM | [8] > 100 µM | [9] 45.1 µM | [10] > 100 µM | [11] > 100 µM | [12] > 100 µM | [13] > 100 µM | [14] > 100 µM | [15] > 100 µM | [16] > 100 µM | [17] > 100 µM | [18] > 100 µM

O=C(CN1CCOCC1)CC(O)(C(F)(F)F)C(F)(F)F
inactive: [1] > 100 µM | [2] > 100 µM | [3] > 100 µM | [4] > 100 µM | [5] 67.3 µM | [6] 44.9 µM | [7] 29.6 µM | [8] > 10 µM | [9] > 100 µM | [10] > 100 µM | [11] 33.5 µM | [13] 42 µM | [19] 35.9 µM | [14] > 100 µM | [15] 55.2 µM | [16] 20.1 µM | [17] > 100 µM | [18] 47.6 µM | [20] 38.6 µM

CC1C2CC(C/C2=N/O)C1(C)C (stereo not given)
inactive: [1] > 100 µM | [2] > 100 µM | [3] > 100 µM | [4] > 100 µM | [5] > 100 µM | [6] > 100 µM | [7] > 100 µM | [8] > 100 µM | [9] > 100 µM | [10] > 100 µM | [11] > 100 µM | [12] > 100 µM | [13] > 100 µM | [19] > 100 µM | [14] > 100 µM | [16] > 100 µM | [17] > 100 µM | [18] > 100 µM | [20] > 100 µM

O=c1c2sc(=S)n(-c3ccc(F)cc3)c2ncn1/N=C/c1ccc(F)cc1F
inactive: [1] 19.3 µM | [2] 46 µM | [3] 19 µM | [4] 16.6 µM | [5] 31 µM | [6] 31 µM | [7] 11 µM | [8] > 100 µM | [9] 83.9 µM | [10] 24.4 µM | [11] 33.4 µM | [12] 39.2 µM | [13] 44.5 µM | [19] 30.1 µM | [14] 20.1 µM | [15] 52.2 µM | [16] 15.8 µM | [18] 58.1 µM | [20] 16 µM
